Reference: patent publication US20250051347A1, “BIFUNCTIONAL CHIMERIC HETEROCYCLIC COMPOUND AND USE THEREOF AS ANDROGEN RECEPTOR DEGRADER” (Hinova Pharmaceuticals, Inc., priority 2021, published 2025)
Like-named read-outs stand apart in the source and are kept apart here.

Key:
[1] = target: T1, androgen receptor (AR) splicing variant AR-v7 (Homo sapiens, UniProt P10275); assay: Degradation activity on androgen receptor splicing variant AR-v7 in 22RV1 cells (ELISA); format: cell-based; conditions: AR-v7 degradation in 22RV1 cells, 48 h, class symbols
T1 construct: The degradation activity of compounds on AR-v7 in 22RV1 cells; host or cells: 22RV1 cells
T1 sequence (P10275 1-644 isoform P10275-3): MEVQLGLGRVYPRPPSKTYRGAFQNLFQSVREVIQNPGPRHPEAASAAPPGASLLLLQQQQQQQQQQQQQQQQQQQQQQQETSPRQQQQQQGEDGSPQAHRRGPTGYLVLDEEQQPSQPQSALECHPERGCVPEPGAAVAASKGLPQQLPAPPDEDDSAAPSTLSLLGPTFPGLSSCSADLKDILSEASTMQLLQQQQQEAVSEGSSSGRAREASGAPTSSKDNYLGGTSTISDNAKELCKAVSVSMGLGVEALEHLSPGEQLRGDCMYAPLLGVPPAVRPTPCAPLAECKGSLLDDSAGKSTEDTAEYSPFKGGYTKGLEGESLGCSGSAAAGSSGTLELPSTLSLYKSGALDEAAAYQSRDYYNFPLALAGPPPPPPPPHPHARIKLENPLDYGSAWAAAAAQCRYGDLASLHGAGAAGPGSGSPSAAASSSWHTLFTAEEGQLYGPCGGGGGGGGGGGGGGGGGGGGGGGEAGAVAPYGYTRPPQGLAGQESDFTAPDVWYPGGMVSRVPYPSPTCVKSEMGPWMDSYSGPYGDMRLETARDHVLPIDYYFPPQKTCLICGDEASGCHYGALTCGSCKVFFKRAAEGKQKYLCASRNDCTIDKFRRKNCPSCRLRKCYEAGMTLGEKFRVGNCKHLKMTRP

[2] = Pharmacokinetics in mice (plasma exposure after oral administration); format: in vivo; conditions: ICR mice, oral (i.g.) 3 mg/kg; for AUC(0-inf): mouse, read-out: After oral administration of 3 mg/kg, mouse plasma exposure AUCinf
[3] = Homo sapiens, 22Rv1, 144 h, read-out: 22RV1 IC50 (nM), 22RV1 cells, 6 days culture, CCK-8, OD 450 nm

Compound	AUC(0-inf) [2]	IC50 (22RV1 cells; [3])	DC50 [1]	After oral administration of 3 mg/kg, mouse plasma exposure AUCinf (μg*h/mL) [2]	IC50 (22RV1 cells; read-out: 22RV1 IC50, 22RV1 cells, 6 days culture, CCK-8, OD 450 nm)
CC(C)(c1ccc(O[C@H]2C[C@H](Nc3ccc4c(c3)C(=O)N(C3CCC(=O)NC3=O)C4=O)C2)cc1)c1ccc(N2CCc3cnc(N4CC5(COC5)C4)nc3C2)cc1 (stereo partly drawn) [Example 189]	5000 to 30000 ng·h/mL	9 nM	< 0.01 µM	–	–
CC(C)(c1ccc(O[C@H]2C[C@@H](Nc3ccc4c(c3)C(=O)N(C3CCC(=O)NC3=O)C4=O)C2)cc1)c1ccc(N2CCc3cnc(N4CC5(COC5)C4)nc3C2)cc1 (stereo partly drawn) [Example 190]	5000 to 30000 ng·h/mL	12 nM	< 0.01 µM	–	–
CC(C)(c1ccc(OCc2cnc(N3CC4(COC4)C3)nc2)cc1)c1ccc(O[C@H]2C[C@@H](Nc3ccc4c(c3)C(=O)N(C3CCC(=O)NC3=O)C4=O)C2)cc1 (stereo partly drawn) [Example 193]	1000 to 5000 ng·h/mL	36 nM	0.011 to 0.1 µM	–	–
CC(C)(c1ccc(O[C@H]2C[C@H](Nc3ccc4c(c3)C(=O)N(C3CCC(=O)NC3=O)C4=O)C2)cc1)c1ccc(N2CCc3nc(N4CC5(COC5)C4)ncc3C2)cc1 (stereo partly drawn) [Example 195]	1000 to 5000 ng·h/mL	15 nM	< 0.01 µM	–	–
CC(C)(c1ccc(OCc2ccnc(N3CC4(CCO4)C3)n2)cc1)c1ccc(O[C@H]2C[C@@H](Nc3ccc4c(c3)C(=O)N(C3CCC(=O)NC3=O)C4=O)C2)cc1 (stereo partly drawn) [Example 196]	1000 to 5000 ng·h/mL	10 nM	< 0.01 µM	–	–
Cc1nc(-c2ccc(Oc3ccc(C(C)(C)c4ccc(O[C@H]5C[C@H](Nc6ccc7c(c6)C(=O)N(C6CCC(=O)NC6=O)C7=O)C5)cc4)cc3)cn2)no1 (stereo partly drawn) [Example 209]	–	–	< 0.01 µM	A (30-5 μg*h/mL)	5 nM

Now from value to compound, other results behind:

AUC(0-inf) [2]	IC50 (22RV1 cells; [3])	Compound	DC50 [1]	After oral administration of 3 mg/kg, mouse plasma exposure AUCinf (μg*h/mL) [2]	IC50 (22RV1 cells; read-out: 22RV1 IC50, 22RV1 cells, 6 days culture, CCK-8, OD 450 nm)
1000 to 5000 ng·h/mL	4 nM	CCC(CC)(c1ccc(Oc2ccc(C(C)O)nn2)cc1)c1ccc(O[C@H]2C[C@H](Nc3ccc4c(c3)C(=O)N(C3CCC(=O)NC3=O)C4=O)C2)cc1 (stereo partly drawn) [Example 175, 2-(2,6-dioxopiperidin-3-yl)-5-(((1r,3r)-3-(4-(3-(4-((6-(1-hydroxylethyl)pyridazine-3-yl)oxy)phenyl)pentan-3-yl)phenoxy)cyclobutyl)amino)isoindolin-1,3-dione]	< 0.01 µM	–	–
100 to 1000 ng·h/mL	20 nM	CNC(=O)c1nccc(COc2ccc(C(C)(C)c3ccc(OCCCNc4ccc5c(c4)C(=O)N(C4CCC(=O)NC4=O)C5=O)cc3)cc2)n1 (stereo not drawn) [Example 183, 4-((4-(2-(4-(3-((2-(2,6-dioxopiperidin-3-yl)-1,3-dioxoisoindolin-5-yl)amino)propoxy)phenyl)propan-2-yl)phenoxy)methyl)-N-methylpyrimidin-2-carbonylamine]	0.011 to 0.1 µM	–	–
100 to 1000 ng·h/mL	6 nM	CNC(=O)c1nccc(COc2ccc(C(C)(C)c3ccc(O[C@H]4C[C@@H](Nc5ccc6c(c5)C(=O)N(C5CCC(=O)NC5=O)C6=O)C4)cc3)cc2)n1 (stereo partly drawn) [Example 187, 4-((4-(2-(4-((1s,3s)-3-((2-(2,6-dioxopiperidin-3-yl)-1,3-dioxoisoindolin-5-yl)amino)cyclobutyloxy)phenyl)propan-2-yl)phenoxy)methyl)-N-methylpyrimidin-2-carbonylamine]	< 0.01 µM	–	–
1000 to 5000 ng·h/mL	12 nM	COc1ncc2c(n1)CN(c1ccc(C(C)(C)c3ccc(OC4CC(Nc5ccc6c(c5)C(=O)N(C5CCC(=O)NC5=O)C6=O)C4)cc3)cc1)CC2 (stereo not drawn) [Example 188]	< 0.01 µM	–	–
5000 to 30000 ng·h/mL	10 nM	CC(C)(c1ccc(Oc2ccc(-n3nccn3)nc2)cc1)c1ccc(O[C@H]2C[C@H](Nc3ccc4c(c3)C(=O)N(C3CCC(=O)NC3=O)C4=O)C2)cc1 (stereo partly drawn) [Example 206, 5-((1r,3r)-3-(4-(2-(4-((6-(2H-1,2,3-triazol-2-yl)pyridin-3-yl)oxy)phenyl)propan-2-ylphenoxy)cyclobutyl)amino)-2-(2,6-dioxopiperidin-3-yl)isoindolin-1,3-dione]	< 0.01 µM	–	–
5000 to 30000 ng·h/mL	7 nM	C=CC(c1ccc(Oc2cnc(-c3noc(C)n3)nc2)cc1)c1ccc(O[C@H]2C[C@H](Nc3ccc4c(c3)C(=O)N(C3CCC(=O)NC3=O)C4=O)C2)cc1 (stereo partly drawn) [Example 210]	< 0.01 µM	–	–
